Patent US20230034584A1, “INHIBITORS OF SHP2” (Bayer Aktiengesellschaft, priority 2019, published 2023)
Where two headings read alike, the source gives them in different places.

Legend:
MRL/lpr mice = MRL/lpr mice treated with the SHP2 inhibitor; cited from earlier work
20 other PTPs = settings: literature value; cited from earlier work
C57/Bl6J mice with UUO [1] = test: UUO mouse model, macrophage infiltration by flow cytometry (CD45, F4/80); format: in vivo; settings: 1 and 10 mg/kg once daily p.o.
Description: Experiments indicative for chronic kidney diseases were carried out in unilateral ureteral obstruction (UUO) mouse models (examples 1). Such treatment results in the short version of the UUO model (3 days) in pronounced macrophage infiltration into the affected kidney, which is one of the triggers for the subsequent interstitial fibrosis and nephron damage. Collagen expression is increased in UUO after 10 days as a result of renal fibrosis, while alpha-smooth muscle actin (ASMA) expression is increased as a result of reduced renal function, or fibroblast expansion (see Chevalier et al, 2009).
(§1) The study was performed on male C57/Bl6J mice (age: 7-8 weeks) that were obtained from Charles River. Mice were anesthetized with continuous inhaled isoflurane, and the left ureter was exposed via a mid-abdominal incision. The mid-ureter was obstructed by two point ligation with silk sutures. The SHAM-operated mouse (n=6) underwent the same procedure except for the obstruction of the left ureter. […] As a placebo, a solution without active ingredient was used (group 2), and a sham operated group with unligated kidney was used as a […] (group 1)
The infiltration of macrophages in response to the renal injury was measured in a flow cytometry assay with detection antibodies binding to the pan-leukocyte marker CD45, as well as to the macrophage-specific antigen. F4/80.

[2] = system: ERK1/2 Thr202/Tyr204-phosphorylation in human renal proximal tubular epithelial cells (RPTEC); test: Phospho-ERK cellular assay (HTRF); format: cell-based; settings: read-out: IC50, inhibition of ERK phosphorylation
Description: Cellular pERK assay was used to determine compound activity on modulating ERK1/2 Thr202/Tyr204-phosphorylation in renal cells. […] The intracellular levels of ERK1/2 phosphorylated at Thr202/Tyr204 were quantified with Advanced Phospho-ERK HTRF assay (Cisbio, Cat. #64AERPEH). Compound incubation was terminated by addition of 16 μL lysis buffer (Cisbio) and 4 μL pERK HTRF® antibody cocktail (Cisbio).

[3] = system: pERK levels in the injured kidneys; test: Phospho-ERK quantification in kidney lysates (HTRF), UUO mice; format: in vivo, mouse; settings: 1 and 10 mg/kg once daily p.o.
Description: Kidney tissue from animal studies was homogenized in supplemented HTRF lysis buffer (Cisbio). The volume of lysis buffer is adjusted at 1 mL per 100 mg tissue. Homogenization was performed with […] steel beads in Mixer Mill (Retsch, MM300) for 2.5 min/25 Hz, followed by sample cooling on ice. The protein concentration in tissue lysates was adjusted to 0.1-0.5 mg/mL and HTRF pERK assay performed as described above.
as §1

log D = format: physicochemical
C57/Bl6J mice with UUO [4] = test: Unilateral ureteral obstruction (UUO) mouse model, 10 days, fibrosis markers; format: in vivo; settings: for αSMA-positive area within the obstructed kidney / Collagen content (Sirius Red/Fast Green staining) of obstructed kidney: ten days, histology
Description: Experiments indicative for chronic kidney diseases were carried out in unilateral ureteral obstruction (UUO) mouse models (examples 1). Such treatment results in the short version of the UUO model (3 days) in pronounced macrophage infiltration into the affected kidney, which is one of the triggers for the subsequent interstitial fibrosis and nephron damage. Collagen expression is increased in UUO after 10 days as a result of renal fibrosis, while alpha-smooth muscle actin (ASMA) expression is increased as a result of reduced renal function, or fibroblast expansion (see Chevalier et al, 2009). The study was performed on male C57/Bl6J mice (age: 7-8 weeks) that were obtained from Charles River. Mice were anesthetized with continuous inhaled isoflurane, and the left ureter was exposed via a mid-abdominal incision. The mid-ureter was obstructed by two point ligation with silk sutures. The SHAM-operated mouse (n=6) underwent the same procedure except for the obstruction of the left ureter. The mice were randomized into four groups (n=10 each group): UUO plus vehicle (10% EtOH/40% PEG/50% water), UUO plus 3 [mg/kg] SHP099, UUO plus 30 [mg/kg] SHP099. Mice were dosed bidaily with vehicle and SHP099. The forth group of mice with UUO was treated once daily with Tivozanib (technical control). At ten days after surgery, mice were euthanized, and kidneys were collected and divided in two parts. One part was snap-frozen in liquid nitrogen for RNA analysis. The other part was stored in Davidson's fixative for the preparation of histological sections. Total RNA was isolated from parts of harvested kidneys. Kidney tissue was homogenized and RNA was obtained and transcribed to cDNA. Using TaqMan real time PCR renal mRNA expression of fibrotic markers was analyzed in kidney tissues. For the assessment of fibrosis on the protein level paraffin tissue sections were stained with alpha-smooth muscle actin (αSMA) and Sirius Red/Fast Green Collagen Stainings using standard procedures. Quantitative measurements of alpha-smooth muscle actin (αSMA)-positive as well as Sirius Red (Collagen) positive areas within the kidneys were obtained by computer image analysis using the Axio Scan Z1 (Zeiss) microscope and the Zen software. All data are expressed as means±S.D. Differences between groups were analyzed by one-way ANOVA with Dunnett's corrections for multiple comparisons. Statistical significance was defined as p<0.05.

[5] = human proximal tubular epithelial cells (immortalized RPTEC), pERK HTRF
[6] = 3 and 30 mg/kg bidaily, ten days after surgery, TaqMan PCR

With `Cn1c(-c2cccc(NC(=O)C(=O)Nc3ccc(-c4ccsc4)cc3)c2)c(I)c2cc(C(=O)O)c(O)cc21` [11a-1] as the molecule, how does the “progression of kidney disease in SLE-prone mice” value (MRL/lpr mice) read?
Its value is “prevented the progression of kidney disease”.

What about the “selectivity against any of 20 other PTPs” value (20 other PTPs) of the same molecule?
Its value is over 5 fold.

What does the source list for `Cc1nc(N2CCC3(CC2)CO[C@@H](C)[C@H]3N)c(CO)nc1-c1cccc(Cl)c1Cl` [RMC-4550, [3-[(3S,4S)-4-amino-3-methyl-2-oxa-8-azaspiro[4.5]decan-8-yl]-6-(2,3-dichlorophenyl)-5-methylpyrazin-2-yl}methanol]?
macrophage infiltration into the kidney (C57/Bl6J mice with UUO [1]): significant, dose-dependent reduction; IC50 ([2]; Homo sapiens, RPTEC): 12.6 nM; pERK levels in the injured kidneys [3]: dose-dependently reduced; logD (log D): 2.2

What does the source list for `CC1(N)CCN(c2cnc(-c3cccc(Cl)c3Cl)c(N)n2)CC1` [SHP099]?
IC50 [2, 5]: 306 nM; αSMA-positive area within the obstructed kidney (C57/Bl6J mice with UUO [4]; 3 mg/kg bidaily): significant reduction; collagen RNA expression in kidney (C57/Bl6J mice with UUO [4]; [6]): dose-dependent reduction; αSMA RNA expression in kidney (C57/Bl6J mice with UUO [4]; [6]): dose-dependent reduction; Collagen content (Sirius Red/Fast Green staining) of obstructed kidney (C57/Bl6J mice with UUO [4]; both dosages (3 and 30 mg/kg bidaily)): dose dependently and significantly reduced

With `COc1cc2nccc(Oc3ccc(NC(=O)Nc4cc(C)on4)c(Cl)c3)c2cc1OC` [Tivozanib] as the molecule, how does the “Collagen content (Sirius Red/Fast Green staining) of obstructed kidney” value (C57/Bl6J mice with UUO [4]; once daily (technical control)) read?
Its value is “significantly reduced”.

What about the “αSMA-positive area within the obstructed kidney” value (C57/Bl6J mice with UUO [4]; once daily (technical control)) of the same molecule?
The value was “significantly reduced”.

For `C[C@@H]1OCC2(CCN(c3cnc(Sc4ccnc(N)c4Cl)c(N)n3)CC2)[C@@H]1N` [TNO-155, (3S,4S)-8-(6-amino-5-((2-amino-3-chloropyridin-4-yl)thio)pyrazin-2-yl)-3-methyl-2-oxa-8-azaspiro[4.5]decan-4-amine], which IC50 [2, 5] is on record?
Its IC50 is 46.4 nM.
